pIC50: −log10 of the molar value.
Legend:
[1] = molecular target: GDP-bound BRAS protein (aa 1-169), containing both G12C and C118A amino acid substitutions (Homo sapiens, UniProt P01116, C118A/G12C); assay: Coupled Nucleotide Exchange Assay (SOS-mediated nucleotide exchange, AlphaScreen); assay type: biochemical; conditions: 2 hours compound pre-incubation
In short: (§1)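 AlphaScreen signal after SOS (aa 564-1049)/GTP-driven exchange (1 h) on GDP-loaded His-[…] G12C/C118A (aa 1-169), following a 2 h compound pre-incubation in HEPES pH 7.4 buffer with 10 mM MgCl2 and 0.01% Triton X-100. IC50s fitted by 4-parameter logistic model.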

[2] = tested on: Phosphorylation of ERK½ in A549 cells; assay: Phospho-ERK½ MSD Assay in A549 cells; assay type: cell-based; conditions: Homo sapiens, A549, A549 cells; 4 hours compound treatment; 10 ng/mL EGF for 10 min; read-out: p-ERK IC50 (A549)
In short: (§2)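 MIA PaCa-2 or A549 cells (25,000/well, RPMI with 10% FBS) exposed to compound titration for 4 h at 37 °C, then stimulated with 10 ng/mL EGF for 10 min and lysed in RIPA. Phospho-ERK1/2 quantified by MSD whole-cell lysate immunoassay; IC50 from 4-parameter logistic fit.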

[3] = molecular target: GDP-bound protein (aa 1-169), containing both G12C and C118A amino acid substitutions (Homo sapiens, UniProt P01116, C118A/G12C); assay: Coupled Nucleotide Exchange Assay (SOS-mediated nucleotide exchange, AlphaScreen); assay type: biochemical; conditions: 2 hours compound pre-incubation
Chain of GDP-bound protein (aa 1-169), containing both G12C and C118A amino acid substitutions (P01116 1-169 isoform P01116-2 G12C/C118A): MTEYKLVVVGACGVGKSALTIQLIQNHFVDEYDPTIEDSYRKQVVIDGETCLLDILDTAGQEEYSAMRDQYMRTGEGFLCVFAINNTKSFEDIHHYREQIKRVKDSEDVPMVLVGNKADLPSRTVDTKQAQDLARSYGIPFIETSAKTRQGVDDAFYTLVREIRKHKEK
In short: as §1

[4] = tested on: Phosphorylation of ERK½ in MIA PaCa-2 cells; assay: Phospho-ERK½ MSD Assay in MIA PaCa-2 cells; assay type: cell-based; conditions: Homo sapiens, MIA PaCa-2, MIA PaCa-2 cells; 4 hours compound treatment; 10 ng/mL EGF for 10 min; read-out: p-ERK IC50 (MIA PaCa-2)
In short: as §2

Chain of GDP-bound BRAS protein (aa 1-169), containing both G12C and C118A amino acid substitutions (P01116 1-169 isoform P01116-2 G12C/C118A): as above

Row | pIC50 [1] | pIC50 [2] | Coupled exchange IC50 [3] | pIC50 [4] | Structure (SMILES)
1 | 6.54 |  |  |  | C=CC(=O)N1CCN(c2nc(=O)n(-c3ccccc3C(C)C)c3cc(Br)c(Cl)cc23)[C@@H](C)C1 [Example 9-2, 7-bromo-6-chloro-4-((2S)-2-methyl-4-(2-propenoyl)-1-piperazinyl)-1-(2-(2-propanyl)phenyl)-2(1H)-quinazolinone]
2 |  | < 4.00 | 3.34 µM | 4.59 | C=CC(=O)N1CCN(c2nnc(C3CC3)c3cc(-c4c(O)cccc4F)c(Cl)cc23)CC1 [Example 12, 1-(4-(7-Chloro-4-cyclopropyl-6-(2-fluoro-6-hydroxyphenyl)-1-phthalazinyl)-1-piperazinyl)-2-propen-1-one]
3 |  | < 4.00 | 5.20 µM | < 4.00 | C=CC(=O)N1CCN(c2nnc(Nc3ccccc3)c3cc(-c4c(O)cccc4F)c(Cl)cc23)CC1 [Example 13, 1-(4-(4-Anilino-7-chloro-6-(2-fluoro-6-hydroxyphenyl)-1-phthalazinyl)-1-piperazinyl)-2-propen-1-one]
4 |  | 4.48 | 2.93 µM | 5.06 | C=CC(=O)N1CCN(c2nnc(Oc3ccccc3)c3cc(-c4c(O)cccc4F)c(Cl)cc23)CC1 [Example 16, 1-(4-(7-Chloro-6-(2-fluoro-6-hydroxyphenyl)-4-phenoxy-1-phthalazinyl)-1-piperazinyl)-2-propen-1-one]
5 |  | 4.31 | 1.02 µM | 5.59 | CN(C)C/C=C/C(=O)N1CCN(c2snc3c(F)c(-c4cc(O)cc5ccccc45)c(Cl)cc23)CC1 [Example 17-2, (2E)-1-(4-(5-chloro-7-fluoro-6-(3-hydroxy-1-naphthalenyl)-2,1-benzothiazol-3-yl)-1-piperazinyl)-4-(dimethylamino)-2-buten-1-one]
6 |  | < 4.00 | 0.760 µM | < 4.00 | C=C(CBr)C(=O)N1CCN(c2snc3c(F)c(-c4cc(O)cc5ccccc45)c(Cl)cc23)CC1 [Example 18-2, 2-(Bromomethyl)-1-(4-(5-chloro-7-fluoro-6-(3-hydroxy-1-naphthalenyl)-2,1-benzothiazol-3-yl)-1-piperazinyl)-2-propen-1-one]
7 |  | 5.43 | 1.62 µM | 5.33 | C=CC(=O)N1CCN(c2snc3c(F)c(-c4cc(O)cc5cnn(C)c45)c(Cl)cc23)CC1 [Example 19-2, 1-(4-(5-chloro-7-fluoro-6-(5-hydroxy-1-methyl-1H-indazol-7-yl)-2,1-benzothiazol-3-yl)-1-piperazinyl)-2-propen-1-one]
8 |  | < 4.00 | 0.927 µM | 4.25 | C=CC(=O)N1CCN(c2snc3c(F)c(-c4cc(O)cc5ccccc45)c(Cl)cc23)C(C(=O)O)C1 (stereo not shown) [Example 22, 1-(5-chloro-7-fluoro-6-(3-hydroxy-1-naphthalenyl)-2,1-benzothiazol-3-yl)-4-(2-propenoyl)-2-piperazinecarboxylic acid]
9 |  | < 4.48 | 3.29 µM | 5.49 | C=CC(=O)N1CCN(c2snc3c(F)c(-c4c(C5CC5)ccc5[nH]ncc45)c(Cl)cc23)CC1 [Example 23, 1-(4-(5-chloro-6-(5-cyclopropyl-1H-indazol-4-yl)-7-fluoro-2,1-benzothiazol-3-yl)-1-piperazinyl)-2-propen-1-one]
10 |  | < 4.00 | 0.251 µM | 6.10 | C=CC(=O)N1CCN(c2snc3c(F)c(-c4nc(N)cc5ccccc45)c(Cl)cc23)CC1 [Example 25, 1-(4-(6-(3-Amino-1-isoquinolinyl)-5-chloro-7-fluoro-2,1-benzothiazol-3-yl)-1-piperazinyl)-2-propen-1-one]
11 |  | < 4.00 | 3.90 µM | 4.52 | C=CC(=O)N1CCN(c2snc3c(F)c(-c4cc(N)nc5ccccc45)c(Cl)cc23)CC1 [Example 26, 1-(4-(6-(2-amino-4-quinolinyl)-5-chloro-7-fluoro-2,1-benzothiazol-3-yl)-1-piperazinyl)-2-propen-1-one]
12 |  | < 4.48 | 1.78 µM | 4.89 | C=CC(=O)N1CCN(c2nnc(-c3ccccc3C(C)C)c3cc(-c4c(O)cccc4F)c(C)nc23)CC1 [Example 27, 1-(4-(3-(2-Fluoro-6-hydroxyphenyl)-2-methyl-5-(2-(2-propanyl)phenyl)pyrido[2,3-d]pyridazin-8-yl)-1-piperazinyl)-2-propen-1-one]
13 |  | < 4.00 | 3.76 µM | < 4.00 | C=CC(=O)N1CCN(c2nnc(Cc3ccc(F)cc3)c3cc(-c4c(O)cccc4F)c(Cl)cc23)CC1 [Example 29, 1-(4-(7-Chloro-4-(4-fluorobenzyl)-6-(2-fluoro-6-hydroxyphenyl)-1-phthalazinyl)-1-piperazinyl)-2-propen-1-one]
14 |  | < 4.00 | 7.51 µM | 4.24 | C=CC(=O)N1CCN(c2nnc(-c3ccccc3)c3cc(-c4c(O)cccc4F)c(Cl)cc23)CC1 [Example 30, 2-(1-(4-Acryloyl-1-piperazinyl)-7-chloro-4-phenyl-6-phthalazinyl)-3-fluorophenol]
15 |  | < 4.00 | 8.01 µM | 4.10 | C=CC(=O)N1CCN(c2nnc(Cc3ccccc3)c3cc(-c4c(O)cccc4F)c(Cl)cc23)CC1 [Example 35, 2-(1-(4-acryloyl-1-piperazinyl)-4-benzyl-7-chloro-6-phthalazinyl)-3-fluorophenol]
16 |  | < 4.48 | 0.484 µM | 5.86 | C=CC(=O)N1CCN(c2nc(=O)n(CC3CC3)c3nc(-c4c(O)cccc4F)c(Cl)cc23)CC1 [Example 38, 6-chloro-1-(cyclopropylmethyl)-7-(2-fluoro-6-hydroxyphenyl)-4-(4-(2-propenoyl)-1-piperazinyl)pyrido[2,3-d]pyrimidin-2(1H)-one]

Source: patent US11285135B2 (AMGEN INC., priority 2016, dated 2022)
